According to patent publication US5882671A, “Anxiolytic agents” (Eli Lilly and Company, priority 1997, dated 1999):
Entries after “also recorded” stand apart in the source; their conditions may differ. Where a name gives a salt, the structure may show the parent alone. Read-outs that look alike come from different tables or passages of the source.

Experiments:
[1] = system: natural aversion to height and open spaces; conditions: reference anxiolytics, cited from earlier work
[2] = system: fear potentiated startle response; conditions: reference anxiolytics, presentation of light, cited from earlier work
[3] = system: anxiety disorders; conditions: in vivo; cited from earlier work
[4] = system: negatively coupled cAMP-linked metabotropic glutamate receptors; assay: selectivity of agonism at metabotropic glutamate receptors
Description: As described previously herein, it is preferred to use an agonist which acts selectively at negatively coupled cAMP-linked metabotropic glutamate receptors (relative to other glutamate receptors) in the methods according to the invention. Such an agonist may be a single compound, for example one of the four compounds named hereinabove, or two or more compounds which, in combination function as an agonist which acts selectively at negatively coupled cAMP-linked metabotropic glutamate receptors.

[5] = system: fear potentiated startle response; assay: fear potentiated startle model of anxiety; assay type: in vivo, Male Long Evans rats; conditions: statement in words
Description: In the fear potentiated startle model, animals are exposed to a neutral stimulus such as light (conditioned stimulus) with an aversive stimulus such as a shock (unconditioned stimulus). Following conditioning, when the animals are presented with a loud acoustic stimulus, larger startle responses are elicited when the startle stimulus is preceded by light. The difference in amplitude between the startle response when conditioned animals are exposed to the aversive stimulus paired with a neutral stimulus and the startle response when the conditioned animal is exposed only to the aversive stimulus is known as fear potentiated startle. The amplitude of the startle response when the animal is exposed only to the aversive stimulus is known as the baseline startle. Test compounds which are effective in this model decrease the fear potentiated startle response. It is emphasized that what is being determined experimentally is the difference between the startle response with paired stimuli and the baseline startle; test compounds which are anxiolytics may increase, decrease or leave unchanged the baseline startle response. (Davis, TiPS, January 1992 [Vol. 13], 35-41).
(§1) Male Long Evans rats (180-400 g) or male NIH Swiss mice (18-35 g) were obtained from Harlan Sprague-Dawley, Cumberland, Ind., U.S.A. and acclimated at least 3 days before testing. Animals were housed at 23°±2° C. (relative humidity 30% to 70%) and given Purina Certified Rodent Chow and water ad libitum. The photoperiod was 12 hours of light and 12 hours of dark, with dark onset at approximately 1800 hours.
(§2) Test compounds were dissolved in a vehicle of purified water and neutralized with 5N NaOH to a pH of 7-8 when applicable. […] Control animals received the respective vehicle.
SL-LAB (San Diego Instruments, San Diego, Calif.) chambers were used for conditioning sessions and for the production and recording of startle responses. A classical conditioning procedure was used to produce potentiation of startle responses. Briefly, on the first 2 days, rats were placed into dark startle chambers in which shock grids were installed. Following a 5-minute acclimation period, each rat received a 1 mA electric shock (500 ms) preceded by a 5 second presentation of light (15 watt) which remained on for the duration of the shock. Ten presentations of the light and shock were given in each conditioning session, […] A block of 10 consecutive presentations of acoustic startle stimuli (110 dB, non-light-paired) were presented at the beginning of the session in order to minimize the influences of the initial rapid phase of habituation to the stimulus. […]

[6] = system: natural aversion to height and open spaces; assay: automated elevated plus maze model of anxiety; assay type: in vivo, male NIH Swiss mice
Protocol: The elevated plus maze model is based upon the natural aversion of rodents to height and open spaces.
as §1, §2
Construction of the elevated plus-maze was based on a design validated for mice by Lister (1987). The entire maze was made of clear Plexiglas. The maze was comprised of two open arms (30×5×0.25 cm) and two enclosed arms (30×5×15 cm). The floor of each maze arm was corrugated to provide texture. The arms extended from a central platform and angled at 90 degrees from each other. The maze was elevated to a height of 45 cm above the floor and illuminated by red light. Individual infrared photocells were mounted along each arm of the maze to monitor closed, open, or nosepoke activity. Mice were individually placed on the central platform of the maze and the number of closed arm, open arm, and nosepoke (poking head only into open arm from closed arm of maze) counts were recorded and used as a measure of arm entries and time spent on various sections of the maze over a five-minute test period.

[7] = system: negatively coupled cAMP-linked metabotropic glutamate receptors; conditions: Schoepp and Johnson, Neuropharmacology Vol. 32; cited from earlier work

For `O=C1CC2(CCCC2)CC(=O)N1CCCCN1CCN(c2ncccn2)CC1` [Buspirone hydrochloride, buspirone hydrochloride], the “reduction of fear of open spaces in the elevated plus maze model” value ([1]; hydrochloride) is given as “effective; also recorded: reducing the fear of open spaces”, the “reduction of fear (increased startle response) in the fear potentiated startle model” value ([2]; hydrochloride) is given as “effective at reducing the fear” and the dependence-inducing side effects [3] is given as “lacks the dependence-inducing side effects”.

For `CN1C(=O)CN=C(c2ccccc2)c2cc(Cl)ccc21` [Diazepam], the “reduction of fear of open spaces in the elevated plus maze model” value [1] is listed as “reducing the fear of open spaces” and the “reduction of fear (increased startle response) in the fear potentiated startle model” value [2] is listed as “effective at reducing the fear”.

In the case of `NC1(C(=O)O)CCC2C(C(=O)O)C21` (single isomer, unassigned; (+)) [(+)-2-Aminobicyclo[3.1.0]hexane-2,6-dicarboxylic Acid], the “selectivity as agonist at negatively coupled cAMP-linked metabotropic glutamate receptors” value (“selectivity as agonist” for short) [4] is reported as “acts selectively as an agonist”, the “efficacy in fear potentiated startle model of anxiety” value [5] is reported as “effective” and the Nosepoke counts ([6]; oral, 3 mg/kg, mice, five-minute test period) is reported as “significant increase”. For the same compound, the open arm activity ([6]; oral, 1, 3 and 10 mg/kg, mice, five-minute test period) was “significant increases”, the “Closed arm activity counts” value ([6]; oral, any dose, mice, five-minute test period) was “not significantly altered” and the “efficacy in elevated plus maze model of anxiety” value ([6]; statement in words) was “effective”.

For `N[C@@]1(C(=O)O)CC[C@@H](C(=O)O)C1` [1S,3R-1-aminocyclopentane-1,3-dicarboxylic acid], the “action at PI-linked metabotropic glutamate receptors” value [7] is given as “also acts at PI-linked metabotropic glutamate receptors” and the “selectivity at negatively coupled cAMP-linked metabotropic glutamate receptors” value [7] is given as “act non-selectively”.

In the case of `N[C@]1(C(=O)O)CO[C@@H]2[C@@H](C(=O)O)[C@@H]21` (relative stereo) [1SR,4SR,5RS,6SR-4-amino-2-oxabicyclo[3.1.0]hexane-4,6-dicarboxylic acid], the “selectivity as agonist” value [4] is reported as “act selectively as agonists” and the “efficacy in fear potentiated startle model of anxiety” value [5] is reported as “effective”.

For `N[C@@]1(C(=O)O)CS[C@@H]2[C@H](C(=O)O)[C@@H]21` (relative stereo) [1SR,4SR,5RS,6SR-4-amino-2-thiabicyclo[3.1.0]hexane-4,6-dicarboxylic acid], the “selectivity as agonist” value [4] was “act selectively as agonists” and the “efficacy in fear potentiated startle model of anxiety” value [5] was “effective”.

With `N[C@@]1(C(=O)O)CO[C@H]2[C@H](C(=O)O)[C@H]21` [1R,4R,5S,6R-4-amino-2-oxabicyclo[3.1.0]hexane-4,6-dicarboxylic acid] the “selectivity as agonist” value [4] was “act selectively as agonists” and the “efficacy in fear potentiated startle model of anxiety” value [5] was “effective”.
